From patent US4363923A, “4-Halgeno-oxetan-2-ones and process for their production” (Ciba-Geigy Corporation, priority 1980, dated 1982) come the findings set out here.

Common to all, as to assay type: cell-based
The subject of one test is Ulothrix subtilissima. Nature of the test: Test demonstrating algistatic activity. The conditions noted are these: Klebsormidium subtilissimum, 504 h, 3 week incubation, shaking water bath, read-out: Minimum inhibitory Concentration, MIC. The protocol:
(§1) The organisms against which the compounds are to be tested are grown in an Erlenmeyer flask in a nutrient medium under sterile conditions on a shaking water bath at 18° C. with exposure (14 hours in light alternating with 10 hours in the dark).
(§2) Tests are carried out against three algae, namely the blue algae
(b) the simple filament-forming Ulothrix subtilissima (B) generally found at colder times of the year in rapidly flowing water;
(§3) The composition of the medium is as follows (according to Algae broth, Difco Laboratories):
(§4) dissolved in 1 liter of distilled water. The nutrient medium treated with the biocide is innoculated with the respective algae suspension such that a final dilution of 1/100 (algae divided with a stirrer) is attained. Evaluation is made after a 3 week incubation in the Erlenmeyer flask on a shaking water bath.

The next test has as its system Phormidium foveolarum. Description: Test demonstrating algistatic activity. As to conditions: Nodosilinea foveolarum, 504 h, 3 week incubation, shaking water bath, read-out: Minimum inhibitory Concentration, MIC. The protocol:
as §1, §2
(a) Phormidium foveolarum (A) which lives in polluted water or moist earth and forms trichomes;
as §3, §4

The subject of another test is Tribonema aequale. Nature of the test: Test demonstrating algistatic activity. As to conditions: 504 h, 3 week incubation, shaking water bath, read-out: Minimum inhibitory Concentration, MIC. The protocol: as §1, §2
and the algae with brown chromatophors
(c) the widespread, unbranched filament-forming Tribonema aequale (C) occurring in bodies of water especially in the spring at low temperature or in the autumn, even in mild winters.
as §3, §4

Test [1] deals with mixed culture of slime-forming bacteria. Description: Bactericidal test on a mixed culture of slime-forming bacteria in saline. As to conditions: 30 ppm, start 10^7 organisms/ml in saline. Here is the method:
A mixed culture of slime-forming bacteria including Pseudomonas aeruginosa, Enterobacter aerogenes, Escherichia coli, Proteus vulgaris, Bacillus mycoides and Staphylococcus aureus in saline containing 10^7 organisms/ml was treated with 30 ppm of the product of Example 2.

In brackets after ≈: the same amount, converted by molar mass.

On to `O=C1CC(Cl)(CC(Cl)(Cl)Cl)O1` (centres unmarked) [Example 2, 4-chloro-4-(2,2,2-trichloroethyl)oxetan-2-one], for which the MIC in the test with Ulothrix subtilissima, with Phormidium foveolarum and in the test with Tribonema aequale was 30 µg/mL (≈ 126 µM) throughout. Moreover, the “number of organisms reduced to” value in test [1] (after one hour) is 10^2 organisms/ml. Also, in test [1] (within 24 hours), the killing of bacteria result is “all the bacteria had been killed”.
